Where two headings read alike, the source gives them in different places.
How the values were obtained:
[1] = target: T1, ALK (Homo sapiens, UniProt Q9UM73); assay: Kinase panel profiling at 1 µmol/L (mobility shift assay, Carna); assay type: biochemical; settings: 1 µmol/L of BTK inhibitor
T1 construct: purchased Carna Biosciences

[2] = target: T2, FRK (Homo sapiens, UniProt P42685); assay: as above; assay type: biochemical; settings: 1 µmol/L of BTK inhibitor
T2 construct: purchased Carna Biosciences

[3] = target: T3, HER2 (Homo sapiens, UniProt P04626); assay: as above; assay type: biochemical; settings: 1 µmol/L of BTK inhibitor
T3 construct: purchased Carna Biosciences

[4] = target: T4, HER4 (Homo sapiens, UniProt Q15303); assay: as above; assay type: biochemical; settings: 1 µmol/L of BTK inhibitor
T4 construct: purchased Carna Biosciences

[5] = target: T5, KDR (Homo sapiens, UniProt P35968); assay: as above; assay type: biochemical; settings: 1 µmol/L of BTK inhibitor
T5 construct: purchased Carna Biosciences

[6] = target: T6, SRC (Homo sapiens, UniProt P12931); assay: as above; assay type: biochemical; settings: 1 µmol/L of BTK inhibitor
T6 construct: purchased Carna Biosciences

[7] = target: T7, BUB1/BUB3 (Homo sapiens, UniProt O43683); assay: as above; assay type: biochemical; settings: 1 µmol/L of BTK inhibitor
T7 construct: purchased Carna Biosciences

[8] = target: T8, CaMK2δ (Homo sapiens, UniProt Q13557); assay: as above; assay type: biochemical; settings: 1 µmol/L of BTK inhibitor
T8 construct: purchased Carna Biosciences

[9] = target: T9, CDK4/CycD3 (Homo sapiens, UniProt P11802); assay: as above; assay type: biochemical; settings: 1 µmol/L of BTK inhibitor
T9 construct: purchased Carna Biosciences

[10] = target: T10, DAPK1 (Homo sapiens, UniProt P53355); assay: as above; assay type: biochemical; settings: 1 µmol/L of BTK inhibitor
T10 construct: purchased Carna Biosciences

[11] = target: T11, DYRK1A (Homo sapiens, UniProt Q13627); assay: as above; assay type: biochemical; settings: 1 µmol/L of BTK inhibitor
T11 construct: purchased Carna Biosciences

[12] = target: T12, PAK6 (Homo sapiens, UniProt Q9NQU5); assay: as above; assay type: biochemical; settings: 1 µmol/L of BTK inhibitor
T12 construct: purchased Carna Biosciences

[13] = target: T13, PKCη (Homo sapiens, UniProt P24723); assay: as above; assay type: biochemical; settings: 1 µmol/L of BTK inhibitor
T13 construct: purchased Carna Biosciences

[14] = target: YES (Homo sapiens, UniProt P07947); assay: Kinase enzyme activity assay (mobility shift assay, Carna); settings: 1 µmol/L of BTK inhibitor
[15] = tested on: AN3-CA; assay: Cell viability assay (ATPlite); assay type: cell-based, human; settings: AN3-CA cell line, 72 hours incubation
Experimental: (§1) Intracellular ATP content was used as an indirect readout of cell number using the ATPlite 1Step bioluminescence assay (Revvity, Groningen, the Netherlands). Cells were seeded in 384-well plates at an optimized density to ensure unrestricted growth and maximal signal at the end of the experiment. After 24 hours of incubation, the starting cell number was determined by adding ATPlite to each well of a control plate and recording luminescence on an Envision multimode reader (Revvity, Waltham, MA, USA) ([4]). Compounds were diluted in DMSO in √10-fold steps from 10 mmol/L stocks to obtain 9-point dilution series. After further 31.6-fold dilution in 20 mmol/L HEPES (pH 7.4), the dilution series were added in duplicate to the cells in the 384-well plates to determine the effect of the compounds on cell viability. Vehicle-treated controls were included to determine maximal cell proliferation. The final DMSO concentration was 0.4% (v/v) in all wells. After incubation for an additional 72 hours, the ATP content was measured in each well using ATPlite. The luminescent signal in inhibitor-treated wells was normalized to vehicle-treated control wells to determine the percentage viability at each concentration. Cell doublings were determined by relating the cell number of vehicle-treated controls to the starting cell number for each cell line. The viability assay of a cell line was repeated when the cell doubling deviated > 2-fold from the historic doubling as determined by multiple independent experiments. The quality of the complete assay was determined by a parallel test with doxorubicin on two cell lines. IC50 values were calculated by fitting a four-parameter logistic model to the percentage viability values using IDBS XLfit5 (IDBS, Guildford, United Kingdom). All curves were visually inspected and submitted to an F-test as implemented in IDBS XLfit5. Curves with an F-value above 1.5 were invalidated and IC50 values were maximized at the highest concentration.

[16] = tested on: KATO III; assay: Cell viability assay (ATPlite); assay type: cell-based, human; settings: KATO III cell line, 72 hours incubation
Experimental: as §1

[17] = tested on: KG-1; assay: Cell viability assay (ATPlite); assay type: cell-based, human; settings: KG-1 cell line, 72 hours incubation
Experimental: as §1

[18] = tested on: RT-4; assay: Cell viability assay (ATPlite); assay type: cell-based, human; settings: RT-4 cell line, 72 hours incubation
Experimental: as §1

[19] = target: T14, MEK2 (Homo sapiens, UniProt P36507); assay: Kinase enzyme activity assay (ELISA, in-house); assay type: biochemical
T14 construct: purchased Carna Biosciences, Inc. 07-42

[20] = target: T15, BMX (Homo sapiens, UniProt P51813); assay: Kinase panel profiling at 1 µmol/L (mobility shift assay, Carna); assay type: biochemical; settings: 1 µmol/L of BTK inhibitor
T15 construct: purchased Carna Biosciences

[21] = target: biotinylated, inactive MEK1 (Homo sapiens, UniProt Q02750); assay: biochemical
[22] = target: activated B-RAF (Homo sapiens, UniProt P15056); assay: biochemical
[23] = target: T16, B-RAF (Homo sapiens, UniProt P15056); assay: Kinase enzyme activity assay at 1 mmol/L ATP (Carna)
Experimental: (§2) Inhibition of MLK1 and B-RAF at K M,ATP was determined in a radiometric assay using ^32P-labeled ATP at Eurofins Cerep SA (Celle-Lévescault, France).

[24] = target: MLK1 (Homo sapiens, UniProt P80192); assay: Radiometric kinase assay with 32P-labeled ATP (Eurofins)
Experimental: Inhibition of MLK1 and B-RAF at K M,ATP was determined in a radiometric assay using ^32P-labeled ATP at Eurofins Cerep SA (Celle-Lévescault, France). Interaction with SIK3 was assessed in a competition binding assay at Eurofins DiscoverX LLC (San Diego, CA, USA).

[25] = target: T16, B-RAF; assay: Radiometric kinase assay with 32P-labeled ATP (Eurofins), cascade assay
Experimental: as §2

T12 sequence (Q9NQU5 whole entry): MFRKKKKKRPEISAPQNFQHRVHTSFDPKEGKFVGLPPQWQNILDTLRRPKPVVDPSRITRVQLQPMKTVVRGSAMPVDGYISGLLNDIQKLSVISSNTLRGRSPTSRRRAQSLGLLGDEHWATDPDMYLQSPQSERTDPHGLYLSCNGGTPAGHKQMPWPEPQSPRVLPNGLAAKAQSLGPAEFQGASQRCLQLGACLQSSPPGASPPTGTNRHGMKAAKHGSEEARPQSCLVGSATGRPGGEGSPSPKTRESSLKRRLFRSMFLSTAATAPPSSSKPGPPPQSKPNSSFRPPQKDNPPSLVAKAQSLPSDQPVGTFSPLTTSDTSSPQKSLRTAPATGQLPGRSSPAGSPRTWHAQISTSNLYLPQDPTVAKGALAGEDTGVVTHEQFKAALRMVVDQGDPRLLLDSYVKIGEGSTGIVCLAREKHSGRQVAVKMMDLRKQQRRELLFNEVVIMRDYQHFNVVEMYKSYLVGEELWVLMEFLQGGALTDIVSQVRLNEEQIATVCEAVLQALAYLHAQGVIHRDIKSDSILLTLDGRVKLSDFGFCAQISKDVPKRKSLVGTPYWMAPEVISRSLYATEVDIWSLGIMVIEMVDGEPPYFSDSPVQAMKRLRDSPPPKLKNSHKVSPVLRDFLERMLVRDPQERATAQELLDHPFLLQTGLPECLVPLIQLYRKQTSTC
T9 sequence (P11802 whole entry): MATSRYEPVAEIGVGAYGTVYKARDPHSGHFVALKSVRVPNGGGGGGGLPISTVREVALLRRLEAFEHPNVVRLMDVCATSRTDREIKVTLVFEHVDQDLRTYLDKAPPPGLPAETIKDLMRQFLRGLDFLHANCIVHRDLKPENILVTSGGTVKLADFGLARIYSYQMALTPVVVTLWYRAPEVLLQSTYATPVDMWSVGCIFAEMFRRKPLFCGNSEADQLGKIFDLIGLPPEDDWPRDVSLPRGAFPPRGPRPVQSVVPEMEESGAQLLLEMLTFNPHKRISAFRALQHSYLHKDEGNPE
T9 sequence (P30281 whole entry partner): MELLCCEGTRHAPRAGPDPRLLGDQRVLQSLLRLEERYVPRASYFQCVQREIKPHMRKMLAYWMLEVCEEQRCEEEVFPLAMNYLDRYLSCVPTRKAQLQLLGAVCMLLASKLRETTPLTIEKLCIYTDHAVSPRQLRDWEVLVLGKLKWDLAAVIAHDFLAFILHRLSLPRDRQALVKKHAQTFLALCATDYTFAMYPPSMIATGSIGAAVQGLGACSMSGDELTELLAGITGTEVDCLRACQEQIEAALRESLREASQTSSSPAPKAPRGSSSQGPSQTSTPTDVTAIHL
T7 sequence (O43683 whole entry): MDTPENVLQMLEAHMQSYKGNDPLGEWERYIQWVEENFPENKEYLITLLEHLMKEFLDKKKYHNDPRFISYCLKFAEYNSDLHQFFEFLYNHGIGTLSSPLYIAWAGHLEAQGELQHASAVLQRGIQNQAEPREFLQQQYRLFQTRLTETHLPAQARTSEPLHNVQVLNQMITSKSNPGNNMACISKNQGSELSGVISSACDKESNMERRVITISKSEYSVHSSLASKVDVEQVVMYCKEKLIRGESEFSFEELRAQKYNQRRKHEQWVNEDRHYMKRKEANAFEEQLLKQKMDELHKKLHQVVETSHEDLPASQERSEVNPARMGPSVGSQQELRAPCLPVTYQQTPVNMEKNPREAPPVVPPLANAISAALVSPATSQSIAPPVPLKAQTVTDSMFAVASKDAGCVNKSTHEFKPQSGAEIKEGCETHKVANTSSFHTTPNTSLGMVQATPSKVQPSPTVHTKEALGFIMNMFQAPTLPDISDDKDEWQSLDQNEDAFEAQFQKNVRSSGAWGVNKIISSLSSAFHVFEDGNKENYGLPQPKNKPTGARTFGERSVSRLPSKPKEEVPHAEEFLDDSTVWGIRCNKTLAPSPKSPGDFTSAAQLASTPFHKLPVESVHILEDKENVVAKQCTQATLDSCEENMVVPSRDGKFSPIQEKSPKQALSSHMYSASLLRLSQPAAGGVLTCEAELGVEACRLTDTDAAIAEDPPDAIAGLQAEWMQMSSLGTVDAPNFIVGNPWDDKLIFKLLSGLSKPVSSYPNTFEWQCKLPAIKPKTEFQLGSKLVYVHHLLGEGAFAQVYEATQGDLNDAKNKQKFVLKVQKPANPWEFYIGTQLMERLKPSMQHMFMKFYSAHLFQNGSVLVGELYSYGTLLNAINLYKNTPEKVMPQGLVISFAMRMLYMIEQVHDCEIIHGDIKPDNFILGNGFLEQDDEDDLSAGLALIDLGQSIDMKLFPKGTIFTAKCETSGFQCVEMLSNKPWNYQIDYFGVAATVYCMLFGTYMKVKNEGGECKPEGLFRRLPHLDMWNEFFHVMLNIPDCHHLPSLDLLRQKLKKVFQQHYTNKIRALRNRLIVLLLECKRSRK
T7 sequence (O43684 whole entry partner): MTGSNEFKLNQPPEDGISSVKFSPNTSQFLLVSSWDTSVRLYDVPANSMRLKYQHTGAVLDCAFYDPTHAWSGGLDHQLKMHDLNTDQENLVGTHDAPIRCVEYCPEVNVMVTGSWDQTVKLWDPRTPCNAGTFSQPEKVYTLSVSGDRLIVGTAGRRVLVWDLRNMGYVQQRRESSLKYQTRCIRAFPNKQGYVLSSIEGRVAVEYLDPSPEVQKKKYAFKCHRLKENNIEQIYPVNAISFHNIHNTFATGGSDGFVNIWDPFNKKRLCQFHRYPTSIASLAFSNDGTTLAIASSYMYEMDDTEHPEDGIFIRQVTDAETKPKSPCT
T10 sequence (P53355 whole entry): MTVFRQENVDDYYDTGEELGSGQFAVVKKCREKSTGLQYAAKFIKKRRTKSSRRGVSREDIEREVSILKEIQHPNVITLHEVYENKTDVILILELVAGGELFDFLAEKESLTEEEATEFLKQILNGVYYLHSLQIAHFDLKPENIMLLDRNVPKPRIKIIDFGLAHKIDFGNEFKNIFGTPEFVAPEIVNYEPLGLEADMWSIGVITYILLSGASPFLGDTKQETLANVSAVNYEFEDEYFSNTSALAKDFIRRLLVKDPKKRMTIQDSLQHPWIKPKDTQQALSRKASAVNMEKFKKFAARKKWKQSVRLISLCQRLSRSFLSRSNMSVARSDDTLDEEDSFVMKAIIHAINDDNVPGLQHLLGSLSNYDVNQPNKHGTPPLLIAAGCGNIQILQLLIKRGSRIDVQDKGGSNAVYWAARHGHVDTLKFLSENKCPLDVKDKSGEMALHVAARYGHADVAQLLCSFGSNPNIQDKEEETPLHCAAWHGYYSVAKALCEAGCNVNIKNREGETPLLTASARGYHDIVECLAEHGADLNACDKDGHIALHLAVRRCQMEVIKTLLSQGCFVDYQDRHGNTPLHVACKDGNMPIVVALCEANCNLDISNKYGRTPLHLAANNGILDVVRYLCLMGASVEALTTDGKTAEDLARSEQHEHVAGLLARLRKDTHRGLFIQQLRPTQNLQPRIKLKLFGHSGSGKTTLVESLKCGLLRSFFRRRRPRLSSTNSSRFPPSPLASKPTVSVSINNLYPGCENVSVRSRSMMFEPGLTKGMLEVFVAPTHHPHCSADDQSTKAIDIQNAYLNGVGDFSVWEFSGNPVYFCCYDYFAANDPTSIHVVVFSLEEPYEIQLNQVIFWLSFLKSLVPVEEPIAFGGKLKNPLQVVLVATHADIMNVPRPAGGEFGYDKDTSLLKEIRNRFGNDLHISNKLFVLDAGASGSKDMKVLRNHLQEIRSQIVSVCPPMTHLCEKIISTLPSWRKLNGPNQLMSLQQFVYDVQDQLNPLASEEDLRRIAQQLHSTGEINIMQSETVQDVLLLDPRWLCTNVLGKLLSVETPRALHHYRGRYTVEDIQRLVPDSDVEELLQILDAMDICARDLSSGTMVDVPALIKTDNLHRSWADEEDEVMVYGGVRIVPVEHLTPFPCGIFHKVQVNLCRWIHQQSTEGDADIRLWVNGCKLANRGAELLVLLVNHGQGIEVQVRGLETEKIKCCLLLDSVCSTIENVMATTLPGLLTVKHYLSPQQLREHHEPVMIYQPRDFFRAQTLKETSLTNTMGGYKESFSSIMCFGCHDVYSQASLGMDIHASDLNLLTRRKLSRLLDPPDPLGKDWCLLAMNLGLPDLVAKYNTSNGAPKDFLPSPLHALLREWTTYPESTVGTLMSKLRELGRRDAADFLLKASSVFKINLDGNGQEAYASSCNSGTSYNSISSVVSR
T13 sequence (P24723 whole entry): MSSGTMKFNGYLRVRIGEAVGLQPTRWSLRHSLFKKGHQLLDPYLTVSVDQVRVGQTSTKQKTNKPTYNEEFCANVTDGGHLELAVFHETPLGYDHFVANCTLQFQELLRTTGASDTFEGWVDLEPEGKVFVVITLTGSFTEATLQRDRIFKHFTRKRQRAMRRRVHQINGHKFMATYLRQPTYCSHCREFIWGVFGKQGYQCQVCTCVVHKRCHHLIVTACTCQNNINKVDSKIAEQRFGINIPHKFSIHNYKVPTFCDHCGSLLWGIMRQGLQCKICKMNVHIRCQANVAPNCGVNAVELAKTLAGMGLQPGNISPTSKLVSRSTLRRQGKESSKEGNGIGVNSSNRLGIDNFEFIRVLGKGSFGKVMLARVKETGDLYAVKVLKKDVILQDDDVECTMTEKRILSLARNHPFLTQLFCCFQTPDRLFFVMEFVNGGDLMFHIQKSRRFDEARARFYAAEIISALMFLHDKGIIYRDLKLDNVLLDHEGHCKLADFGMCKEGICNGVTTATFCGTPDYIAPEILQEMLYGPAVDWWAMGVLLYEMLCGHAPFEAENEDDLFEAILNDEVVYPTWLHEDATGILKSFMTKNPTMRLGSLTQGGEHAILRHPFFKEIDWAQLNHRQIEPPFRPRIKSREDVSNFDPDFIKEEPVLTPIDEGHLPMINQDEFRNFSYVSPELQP

Row | Compound | Percentage inhibition of kinase enzyme activity [1] [%] | Percentage inhibition of kinase enzyme activity [2] [%] | Percentage inhibition of kinase enzyme activity [3] [%] | Percentage inhibition of kinase enzyme activity [4] [%] | Percentage inhibition of kinase enzyme activity [5] [%] | Percentage inhibition of kinase enzyme activity [6] [%] | Percentage inhibition of kinase enzyme activity [7] [%] | Percentage inhibition of kinase enzyme activity [8] [%] | Percentage inhibition of kinase enzyme activity [9] [%] | Percentage inhibition of kinase enzyme activity [10] [%] | Percentage inhibition of kinase enzyme activity [11] [%] | Percentage inhibition of kinase enzyme activity [12] [%] | Percentage inhibition of kinase enzyme activity [13] [%] | Percentage inhibition of kinase enzyme activity [14] [%] | Percentage inhibition of kinase enzyme activity [20] [%] | further results
1 | CC#CC(=O)N1CCC[C@H]1c1nc(-c2ccc(C(=O)Nc3ccccn3)cc2)c2c(N)nccn12 [acalabrutinib] | 5.27 | 47.48 | 16.11 | 77.61 | 6.81 | 10.46 | 5.51 | -3.53 | -13.28 | -17.45 | -4.57 | -8.74 | -3.18 | 21.84 |  | 
2 | C=CC(=O)N1CCC[C@@H](n2nc(-c3ccc(Oc4ccccc4)cc3)c3c(N)ncnc32)C1 [ibrutinib] | 5.45 | 99.53 | 100.31 | 98.60 | 83.54 |  | 5.19 | -0.83 | 4.00 | -3.80 | -3.54 | 8.60 | 3.27 |  |  | 
3 | O=C(c1ccc(Oc2ccccc2)cc1Cl)c1c[nH]c2ncnc(N[C@@H]3CC[C@@H](CO)OC3)c12 [nemtabrutinib] | 50.65 | 98.79 | 99.89 | 95.14 | 80.64 |  | -0.62 | 14.10 | 0.33 | -7.44 | -2.18 | 64.72 | 5.25 |  | 100.05 | IC50 [15]: 1.19 µM; IC50 ([15]; Homo sapiens, AN3-CA, 72 h): 1.1 µM; IC50 ([16]; Homo sapiens, KATO III, 72 h): 1.1 µM; IC50 [16]: 1.12 µM; IC50 ([17]; Homo sapiens, KG-1, 72 h): 1.4 µM; IC50 [17]: 1.41 µM; IC50 ([18]; Homo sapiens, RT-4, 72 h): 1.7 µM; IC50 [18]: 1.7 µM; IC50 ([19]; 1 mmol/L ATP, read-out: IC50, MEK2): 0.494 µM; IC50 ([19]; IC50, MEK2): 0.0095 µM; Kd [21]: 0.01 µM; Kd [22]: 1.2 µM; IC50 [23]: 0.335 µM; IC50 [24]: 4.87 µM; Inhibition of MLK1 [24]: did not inhibit; IC50 [25]: 0.073 µM
4 | COc1ccc(F)cc1C(=O)NCc1ccc(-c2nn([C@@H](C)C(F)(F)F)c(N)c2C(N)=O)cc1 [pirtobrutinib] | 6.67 | 13.63 | 35.83 | 69.88 | -1.66 | 4.75 | 3.40 | -7.24 | 4.05 | -0.51 | -2.78 | 4.12 | 3.32 | 72.60 | 29.35 | 
5 | C=CC(=O)N1CCC([C@@H]2CCNc3c(C(N)=O)c(-c4ccc(Oc5ccccc5)cc4)nn32)CC1 [zanubrutinib] |  | 31.32 | 98.58 | 2.98 | -4.47 |  |  |  |  |  |  |  |  |  |  | 

— PMC12586182 (Frontiers in Oncology, 2025)
